Test results: article PMC3271384 (Molecular Genetics and Metabolism, 2012)
Positions count from the first letter of the chain named.

What was measured:
Assay type in all cases: binding
AGT-Ma [1] = biological target: T1, AGT-Ma (Homo sapiens, UniProt P21549, S187F); test: intrinsic fluorescence
T1 sequence (P21549 1-392 S187F): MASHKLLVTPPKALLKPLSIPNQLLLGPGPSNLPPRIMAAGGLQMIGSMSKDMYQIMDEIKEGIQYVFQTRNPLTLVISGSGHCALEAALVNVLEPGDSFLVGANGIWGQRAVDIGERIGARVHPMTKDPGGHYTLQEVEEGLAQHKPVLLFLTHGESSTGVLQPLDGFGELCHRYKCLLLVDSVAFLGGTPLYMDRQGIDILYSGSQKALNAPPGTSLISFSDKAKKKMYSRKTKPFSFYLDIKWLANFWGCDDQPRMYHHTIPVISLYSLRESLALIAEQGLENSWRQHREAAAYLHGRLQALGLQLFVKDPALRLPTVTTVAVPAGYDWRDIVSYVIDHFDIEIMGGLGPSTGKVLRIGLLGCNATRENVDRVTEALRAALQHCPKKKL

AGT-Ma [2] = biological target: T2, AGT-Ma (Homo sapiens, UniProt P21549, S158L); test: CD signal at […] nm titration of apoenzyme
T2 sequence (P21549 1-392 S158L): T1 sequence (P21549 1-392 S187F) with S158L, F187S

AGT-Mi [3] = biological target: T3, AGT-Mi (Homo sapiens, UniProt P21549, I340M/P11L/W108R); test: CD signal at […] nm titration of apoenzyme
T3 sequence (P21549 1-392 P11L/W108R/I340M): T1 sequence (P21549 1-392 S187F) with P11L, W108R, F187S, I340M

AGT-Ma [4] = biological target: T4, AGT-Ma (Homo sapiens, UniProt P21549, S218L); test: CD signal at […] nm titration of apoenzyme
T4 sequence (P21549 1-392 S218L): T1 sequence (P21549 1-392 S187F) with F187S, S218L

AGT-Mi [5] = biological target: T5, AGT-Mi (Homo sapiens, UniProt P21549, G350D/I340M/P11L); test: quenching of intrinsic fluorescence of apoenzyme
T5 sequence (P21549 1-392 P11L/I340M/G350D): T1 sequence (P21549 1-392 S187F) with P11L, F187S, I340M, G350D

AGT-Mi [6] = biological target: T6, AGT-Mi (Homo sapiens, UniProt P21549, G161S/I340M/P11L); test: quenching of intrinsic fluorescence of apoenzyme
T6 sequence (P21549 1-392 P11L/G161S/I340M): T1 sequence (P21549 1-392 S187F) with P11L, G161S, F187S, I340M

AGT-Ma [7] = biological target: T7, AGT-Ma (Homo sapiens, UniProt P21549, P319L); test: quenching of intrinsic fluorescence of apoenzyme
T7 sequence (P21549 1-392 P319L): T1 sequence (P21549 1-392 S187F) with F187S, P319L

Cc1ncc(COP(=O)(O)O)c(C=O)c1O [PLP]
Kd (AGT-Ma [1]): < 10 nM | Kd (AGT-Ma [2]): 272000 ± 47000 nM | Kd (AGT-Mi [3]): 96000 ± 19000 nM | Kd (AGT-Ma [4]): 24200 ± 100 nM | Kd (AGT-Mi [5]): 31 ± 5 nM | Kd (AGT-Mi [6]): 460 ± 70 nM | Kd (AGT-Ma [7]): 190 ± 40 nM
